Columns and labels:
[1] = system: A (delta) and C sensory fibers; details: cited from earlier work; for sensory blocking properties: compared with the corresponding R (dextro)-enantiomers
[2] = cited from earlier work
[3] = system: radial nerve; assay: Injection in fanlike distribution of the radial nerve, patient with CRPS of right hand (Example 3); format: in vivo, human; details: single treatment, bupivacaine 0.25% (3 ml)
Text: A patient with CRPS and severe pain, including pins and needles sensation in their right hand for over 20 years, presented with these symptoms and major discoloration in their right arm due to compartment syndrome many years ago and could barely open and close their fist.

[4] = system: facial pain / facial neuropathies; assay: Intranasal local anesthetic in patients with facial pain after facial trauma (Examples 4-6); format: in vivo, human
Procedure: A patient had severe facial pain following a large metal beam impact which left them with facial neuropathies and headache that adversely affected their ability to eat and speak was treated with intranasal bupivacaine 0.5% (4 ml). […] They improved with subsequent repeat treatments and was able to perform job and daily activities normally. […] A patient with severe facial pain resulting from being hit in the face with a pipe that caused four facial fractures, for seven years had numbness in certain areas of their face and severe pain in the area of their left eye, as well as generalized facial and head pain. They were treated with intranasal bupivacaine 0.5% (4 ml). […] A patient had sustained facial nerve injuries from a close range gunshot wound to the face. They were in excruciating pain and could not speak or eat without severe duress. […] They had been in agony for over 5 years previous to this treatment.

[5] = system: Supratrochlear nerve / occipital nerves with SPG; assay: Injection of supratrochlear or occipital nerves combined with SPG block; format: in vivo, human
Text: Another aspect of the invention is the combination of stimulation of SPG with branches of Trigeminal nerves, or occipital nerves. There is known C-2 and 3 connection with Trigeminal nerve and SPG and likely with C1.

[6] = system: suprascapular nerve; assay: Fanlike injection in the vicinity of the suprascapular nerve, patient with pain and decreased range of motion after rotator cuff repair (Example 1); format: in vivo, human; details: many months after torn rotator cuff repair, lidocaine 1% (3 ml)
Procedure: A patient with pain and decreased range of motion for many months following repair of a torn rotator cuff, was treated using a fanlike injection of lidocaine 1% (3 ml) merely in the vicinity of the suprascapular nerve, hitting small fibers in the area.
This block differs from classic suprascapular block in that the area around the nerve was targeted and treated, rather than the nerve itself. This procedure was easier to perform than trying to block the suprascapular nerve directly, which would have been much more difficult to target or specific, direct treatment. In terms of neurostimulation, or blocking with energy sources such as light, laser, infrasound or electricity, it means that transcutaneous methods can work well by targeting the area around a major nerve, or merely within its general area of innervation, and not necessarily the nerve itself.

[7] = system: suprascapular nerve; assay: Direct suprascapular injection and subsequent fanlike injection, patient with CRPS of left arm and hand with frozen shoulder syndrome (Example 7); format: in vivo, human; details: lidocaine 1% (4 ml) together with methylprednisolone acetate (10 mg), direct suprascapular then fanlike injection, a few treatment sessions
Text: A patient had severe CRPS of the left arm and hand with frozen shoulder syndrome and severe edema, allodynia coldness and nail changes involving their left hand for over 18 months. Their condition is shown in the photographs of FIGS. 6 and 7. They failed all therapies to the time of presentation.

[8] = intranasally administered; cited from earlier work
[9] = system: saphenous nerve; assay: Saphenous nerve injection, patient with severe leg and foot pain due to surgical trauma (Example 2); format: in vivo, human; details: ropivacaine 0.25% (5 ml)
Procedure: A patient with severe leg and foot pain for several years due to prior surgical trauma resulting from an initial bunionectomy and other follow-up surgeries was treated by a saphenous nerve injection of ropivacaine 0.25% (5 ml) after exquisite tenderness was noted on palpation of the saphenous nerve greater than 14 cm proximal to the level of their foot trauma. However, much of their symptomatology was in the distribution of other nerves. Indeed, they had motor dysfunction of the toes and their saphenous nerve is a purely sensory nerve. […] They could walk like they had not in many years.

[10] = system: migraine; details: direct application to region of nasal epithelium overlying the SPG using a cotton swab, versus drip and spray methods; cited from earlier work
[11] = Example 4, patient, metal beam impact, intranasal bupivacaine 0.5% (4 ml)

CCCN1CCCC[C@H]1C(=O)Nc1c(C)cccc1C (single isomer, unassigned) [S (levo)-enantiomer of ropivacaine]
sensory blocking properties [1]: better sensory blocking properties

CCCCN1CCCC[C@H]1C(=O)Nc1c(C)cccc1C [S (levo)-enantiomer of bupivacaine]
sensory blocking properties [1]: better sensory blocking properties
physiological toxicity ([2]; compared with the corresponding R (dextro)-enantiomers): lower physiological toxicity

CCCCN1CCCCC1C(=O)Nc1c(C)cccc1C (stereo not drawn) [bupivacaine]
symptoms and hand function ([3]; patient with CRPS over 20 years, fanlike distribution of radial nerve): felt dramatically better and could open and close their hand and make and maintain a fist
neurotrophic findings of decreased temperature, edema, allodynia, discoloration and severe restriction of range of motion ([3]; patient with CRPS): decreased dramatically
relief of pain [4, 11]: almost complete relief of pain
time to reported pain relief [4, 11]: ≤ 3 min
ability to open mouth, eat and speak ([4]; Example 4, patient, intranasal bupivacaine 0.5% (4 ml)): could open their mouth wide, eat normally and could speak for normal periods of time and at normal volume
time to reported pain relief ([4]; Example 5, patient, four facial fractures, pain for seven years, intranasal bupivacaine 0.5% (4 ml)): ≤ 1 min
relief of pain ([4]; Example 5, patient, intranasal bupivacaine 0.5% (4 ml)): complete relief of pain
pain management ([4]; Example 6, patient, gunshot wound to the face, intranasal bupivacaine 0.5% (3-4 ml) monthly, several years follow up): manages their pain well
adverse sequela ([4]; Example 6, intranasal bupivacaine 0.5% (3-4 ml) monthly, several years follow up): no adverse sequela
result of subsequent SPG block ([5]; injection of bupivacaine 0.5% to the Supratrochlear nerve): better result with SPG block subsequently
headache ([5]; injection of occipital nerves with 0.5%, with SPG block): headache was further decreased with SPG block

CCN(CC)CC(=O)Nc1c(C)cccc1C [lidocaine]
pain and range of motion [6]: remarkable improvement in pain and range of motion
symptoms and findings of CRPS (frozen shoulder, edema, allodynia, coldness, nail changes) [7]: completely reversed these symptoms and findings
duration of action [8]: shorter than about one hour

CCCN1CCCC[C@H]1C(=O)Nc1c(C)cccc1C [ropivacaine]
relief of pain [9]: almost complete relief of pain
sensation and strength in the distribution of other peripheral nerves, including the peroneal nerves [9]: normalized sensation and strength
time to reported pain relief [9]: ≤ 10 min
block of nerve fibers such as A (delta) and C sensory fibers versus motor neurons ([1]; compared with bupivacaine): more preferentially than other neurons such as motor neurons
inhibition of migraine [10]: most rapid and most effective inhibition of migraine
cardiovascular and central nervous system toxicity ([2]; compared with bupivacaine): lower cardiovascular and central nervous system toxicity than bupivacaine
systemic toxicity profile ([2]; compared with other similar relatively long acting potent local anesthetics): better systemic toxicity profile

Reference: patent publication US11541237B2, “Methods for improving shoulder range of motion and functionality” (priority 2013, dated 2023)
